From PMC12794062, “Repositioning a Human Kinase Platelet-Derived Growth Factor Receptor Alpha Type II Inhibitor for Malaria and Inhibition of Hemozoin Formation” (ACS Medicinal Chemistry Letters, 2025)
“And” between values parts separate entries of the source, which are not always exact repeats. Equal entries are not always repeated. Where two headings read alike, the source gives them in different places.

Experiments:
P. falciparum K1 = assay: In vitro asexual blood stage antiplasmodium activity (pLDH assay), multidrug-resistant K1 strain; details: mean ± SD, n ≥ 2 independent experiments
P. falciparum NF54 = assay: In vitro asexual blood stage antiplasmodium activity (pLDH assay), drug sensitive NF54 strain; details: mean ± SD, n ≥ 2 independent experiments
β-hematin formation = assay: Cell-free β-hematin inhibition assay (NP-40 detergent-based); format: biochemical; details: 2 independent experiments, read-out: βH IC50 ± SD
P. falciparum Dd2 = assay: In vitro asexual blood stage antiplasmodium activity (pLDH assay), multidrug-resistant Dd2 strain; details: Plasmodium falciparum, DD2, read-out: Pf IC50 ± SD Dd2, asexual blood stage; mean ± SD, n ≥ 2 independent experiments
[1] = tested on: Chinese Hamster Ovarian (CHO) cells; assay: In vitro cytotoxicity, MTT assay; details: CHO IC50/PfNF54 IC50
[2] = In vitro cytotoxicity, MTT assay; details: Chinese hamster, Chinese Hamster Ovarian (CHO) cells
[3] = In vitro microsomal metabolic stability, mouse; format: in vitro ADME; details: male, CD1, mouse, mouse liver microsomes, pH 7.4; read-out: CLint,app (m)
[4] = In vitro microsomal metabolic stability, human; format: in vitro ADME; details: both sexes, human liver microsomes, pH 7.4, read-out: CLint,app (h)
[5] = In vitro microsomal metabolic stability, rat; format: in vitro ADME; details: male, Sprague Dawley, rat liver microsomes, pH 7.4, read-out: CLint,app (r)
[6] = Solubility, miniaturised shake flask method, HPLC-DAD; format: physicochemical; details: aqueous solution, 25 °C, aqueous buffer, thermodynamic from solid; pH 6.5; footnote: thermodynamic solubility, title and text: kinetic
[7] = tested on: heme species (free heme, hemozoin) in NF54 parasites; assay: Cellular heme fractionation assay; format: cell-based, Plasmodium falciparum; details: 0.5× to 3× IC50, NF54 parasites
[8] = Plasmodium falciparum, K1, read-out: Pf IC50 ± SD K1, asexual blood stage
[9] = Plasmodium falciparum, NF54, read-out: Pf IC50 ± SD NF54, asexual blood stage
[10] = read-out: Pf IC50 ± SD K1, asexual blood stage

SMILES | IC50 (P. falciparum K1; [8]) [nM] | IC50 (P. falciparum NF54; [9]) [nM] | IC50 (β-hematin formation) | IC50 (P. falciparum Dd2) [nM] | other results
Nc1cncc(/C=C/c2cncc(C(=O)NCCc3ccc(Cl)cc3Cl)c2)c1 [Compound 9] | > 6000 | 480 ± 260 | – | – | –
Cc1cnc(N)c(/C=C/c2cccc(C(=O)NCCc3ccc(Cl)cc3Cl)n2)c1 [Compound 26] | – | 780 ± 30 | 27 ± 7 µM | 3190 ± 380 | –
O=C(NCCc1ccc(Cl)cc1Cl)c1cncc(/C=C/c2ccccc2)c1 [Compound 11] | – | 4280 | 22 ± 2 µM | – | IC50 (P. falciparum NF54; read-out: Pf IC50 ± SD NF54, asexual blood stage): 4820 ± 1550 nM
Cc1cnc(N)c(/C=C/c2cncc(C(=O)Nc3ccc(Cl)cc3)c2)c1 [Compound 23] | – | 140 ± 20 | – | 190 | selectivity index [SI] [1]: 150; IC50 [2]: 21 µM; CLint scaled at 1 µM [3]: 153 mL/min/kg; CLint scaled at 1 µM [4]: 64 mL/min/kg; CLint scaled at 1 µM [5]: 62 mL/min/kg; solubility thermodynamic at 20 h [6]: < 5 µM
Cc1cnc(N)c(/C=C/c2cncc(C(=O)NCCc3ccc(Cl)cc3Cl)c2)c1 [Compound 4] | 590 ± 40 | 220 ± 30 | 13 ± 2 µM | – | free heme, dose response [7]: dose-dependent increase in free heme; hemozoin, dose response [7]: decrease in hemozoin
Nc1ccncc1/C=C/c1cncc(C(=O)NCCc2ccc(Cl)cc2Cl)c1 [Compound 12] | – | 140 | – | 920 ± 50 | –
Cc1cnc(N)c(/C=C/c2cccc(C(=O)NCCc3ccc(Cl)cc3Cl)c2)c1 [Compound 27] | 1650 ± 270 | 620 ± 70 | 13 ± 4 µM | – | –
Cc1cnc(N)c(/C=C/c2cncc(C(=O)NCCc3ccccc3)c2)c1 [Compound 19] | < 1000 | 320 ± 60 | – | < 1000 | IC50 (P. falciparum K1; [10]): 580 ± 160 nM
Cc1cnc(N)c(/C=C/c2cscc2C(=O)NCCc2ccc(Cl)cc2Cl)c1 [Compound 28] | – | 590 ± 350 | 18 ± 7 µM | 2360 ± 400 | –
Cc1cnc(N)c(/C=C/c2cncc(C(=O)NCCc3ccc(Cl)cc3)c2)c1 [Compound 18] | < 1000 | – | 15 ± 2 µM | – | IC50 (P. falciparum K1; [10]): 720 ± 430 nM
Cc1cnc(N)c(/C=C/c2cncc(C(=O)NCc3cc(Cl)cc(Cl)c3)c2)c1 [Compound 21] | 460 ± 170 | 90 | < 10 µM and 5 µM | – | –
Nc1ccc(/C=C/c2cncc(C(=O)NCCc3ccc(Cl)cc3Cl)c2)cn1 [Compound 8] | – | 510 ± 420 | – | 2210 ± 1160 | –
O=C(NCCc1ccc(Cl)cc1Cl)c1cncc(/C=C/c2cccnc2)c1 [Compound 10] | – | 2630 ± 2270 | 15.9 ± 0.1 µM | – | –
Cc1cnc(N)c(/C=C/c2cncc(C(=O)NCCC3CCNCC3)c2)c1 [Compound 25] | – | > 6000 | 232 ± 27 µM | – | –
Nc1ncncc1/C=C/c1cncc(C(=O)NCCc2ccc(Cl)cc2Cl)c1 [Compound 13] | – | 480 ± 350 | – | 1400 ± 50 | –
Nc1ncccc1/C=C/c1cncc(C(=O)NCCc2ccc(Cl)cc2Cl)c1 [Compound 7] | 960 ± 390 | 340 ± 240 | 17.9 ± 0.2 µM | 5470 ± 540 | –
Cc1cnc(N)c(/C=C/c2cncc(C(=O)NCCc3ccncc3)c2)c1 [Compound 24] | – | 2060 ± 690 | 62 ± 5 µM | – | –
Cc1cnc(N)c(/C=C/c2cncc(C(=O)Nc3ccc(Cl)cc3Cl)c2)c1 [Compound 22] | – | 200 ± 60 | < 10 µM and 8 µM | 350 ± 50 | –
Cc1ccc(N)c(/C=C/c2cncc(C(=O)NCCc3ccc(Cl)cc3Cl)c2)c1 [Compound 5] | – | 2600 ± 1470 | 18.4 ± 0.2 µM | – | –
Cc1cncc(/C=C/c2cncc(C(=O)NCCc3ccc(Cl)cc3Cl)c2)c1 [Compound 6] | – | 1180 ± 380 | 26 ± 7 µM | – | –
Cc1cnc(N)c(/C=C/c2cncc(C(=O)NCc3ccc(Cl)cc3Cl)c2)c1 [Compound 20] | 250 ± 120 | 160 ± 70 | – | 190 ± 110 | –
